In US10975084B2, “KDM5 inhibitors” (Merck Sharp & Dohme Corp., priority 2016, dated 2021):

target: KDM5B (Homo sapiens (Human), UniProt Q9UGL1); assay: KDM5B TR-FRET Enzyme Activity Assay; format: biochemical; details: LANCE TR-FRET; 5 nM full-length recombinant KDM5B; ten point titration 100000 nM to 5.08 nM
In short: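 Full-length KDM5B from Sf21 cells (5 nM) was preincubated 30 min with compound in HEPES pH 7.3 buffer with ascorbate and 2 μM Fe(II). Reaction with 500 nM biotinylated H3K4Me3 peptide and 500 nM α-ketoglutarate ran 60 min. Product was detected by TR-FRET (Eu-anti-H3K4Me1-2/streptavidin-Dylight 650, 665/615 ratio); IC50 came from a 4-parameter fit.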

KDM5B, sequence (Q9UGL1 whole entry): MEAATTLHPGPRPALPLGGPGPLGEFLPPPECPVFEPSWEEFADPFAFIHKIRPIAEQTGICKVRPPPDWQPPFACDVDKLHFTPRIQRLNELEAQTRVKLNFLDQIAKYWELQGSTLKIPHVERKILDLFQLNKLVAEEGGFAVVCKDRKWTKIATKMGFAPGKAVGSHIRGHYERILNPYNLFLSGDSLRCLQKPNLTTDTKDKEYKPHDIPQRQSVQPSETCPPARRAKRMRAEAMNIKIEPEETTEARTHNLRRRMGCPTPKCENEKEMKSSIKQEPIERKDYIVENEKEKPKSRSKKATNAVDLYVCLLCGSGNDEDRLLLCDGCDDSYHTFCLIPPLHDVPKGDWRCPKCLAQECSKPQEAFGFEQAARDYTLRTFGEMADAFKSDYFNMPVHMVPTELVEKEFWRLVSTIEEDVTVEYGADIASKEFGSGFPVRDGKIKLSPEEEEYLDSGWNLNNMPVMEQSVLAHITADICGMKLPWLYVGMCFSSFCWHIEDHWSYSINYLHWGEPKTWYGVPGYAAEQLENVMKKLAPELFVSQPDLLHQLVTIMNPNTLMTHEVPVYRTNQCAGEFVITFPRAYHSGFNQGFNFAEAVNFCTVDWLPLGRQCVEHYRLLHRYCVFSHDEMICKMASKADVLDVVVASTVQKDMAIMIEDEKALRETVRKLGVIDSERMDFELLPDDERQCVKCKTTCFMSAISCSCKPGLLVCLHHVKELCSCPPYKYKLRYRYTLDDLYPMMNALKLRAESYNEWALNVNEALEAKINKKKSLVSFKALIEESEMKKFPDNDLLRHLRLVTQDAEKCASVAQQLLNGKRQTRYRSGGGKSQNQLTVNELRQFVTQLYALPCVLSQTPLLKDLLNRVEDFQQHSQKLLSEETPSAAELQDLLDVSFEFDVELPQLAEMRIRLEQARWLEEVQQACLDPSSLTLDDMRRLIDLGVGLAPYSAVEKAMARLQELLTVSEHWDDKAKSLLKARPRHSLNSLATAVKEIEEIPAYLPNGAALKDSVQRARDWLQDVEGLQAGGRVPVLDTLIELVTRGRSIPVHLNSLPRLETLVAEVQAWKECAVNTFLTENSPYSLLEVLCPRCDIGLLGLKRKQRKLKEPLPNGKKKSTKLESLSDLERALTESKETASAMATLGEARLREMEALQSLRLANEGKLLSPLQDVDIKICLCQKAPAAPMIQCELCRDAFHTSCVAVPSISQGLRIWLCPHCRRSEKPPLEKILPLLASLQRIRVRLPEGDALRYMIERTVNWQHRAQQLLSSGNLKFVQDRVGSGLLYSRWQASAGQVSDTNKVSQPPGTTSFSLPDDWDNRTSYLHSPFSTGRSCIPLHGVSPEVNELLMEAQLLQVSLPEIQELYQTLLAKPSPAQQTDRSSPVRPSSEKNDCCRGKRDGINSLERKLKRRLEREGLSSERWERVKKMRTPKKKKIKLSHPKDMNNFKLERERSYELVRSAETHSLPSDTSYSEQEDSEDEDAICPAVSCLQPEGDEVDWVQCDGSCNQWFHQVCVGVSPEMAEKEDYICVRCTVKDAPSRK

| IC50 [nM] | SMILES |
| --- | --- |
| 11.7 | CC(C)c1c(-c2cnn(CCO)c2)[nH]c2ncnn2c1=O [Example 11-111, 5-[1-(2-hydroxyethyl)-1H-pyrazol-4-yl]-6-(1-methylethyl)[1,2,4]triazolo[1,5-a]pyrimidin-7(4H)-one] |
| 51.2 | CC(C)c1c(-c2cnn3c2CCC3)[nH]c2ncnn2c1=O [Example 11-112, 5-(5,6-dihydro-4H-pyrrolo[1,2-b]pyrazol-3-yl)-6-(1-methylethyl)[1,2,4]triazolo[1,5-a]pyrimidin-7(4H)-one] |
| 17.3 | CC(C)c1c(-c2cnc(-c3ccc(F)cc3)o2)[nH]c2ncnn2c1=O [Example 11-113, 5-[2-(4-fluorophenyl)-1,3-oxazol-5-yl]-6-(1-methylethyl)[1,2,4]triazolo[1,5-a]pyrimidin-7(4H)-one] |
| 337 | Cc1c(-c2[nH]c3ncnn3c(=O)c2C(C)C)cnn1-c1ccccc1 [Example 11-114, 6-(1-methylethyl)-5-(5-methyl-1-phenyl-1H-pyrazol-4-yl)[1,2,4]triazolo[1,5-a]pyrimidin-7(4H)-one] |
| 122 | Cc1csc(-c2[nH]c3ncnn3c(=O)c2C(C)C)c1 [Example 11-115, 6-(1-methylethyl)-5-(4-methylthiophen-2-yl)[1,2,4]triazolo[1,5-a]pyrimidin-7(4H)-one] |
| 444 | Cc1nc(-c2ccccc2)sc1-c1[nH]c2ncnn2c(=O)c1C(C)C [Example 11-116, 6-(1-methylethyl)-5-(4-methyl-2-phenyl-1,3-thiazol-5-yl)[1,2,4]triazolo[1,5-a]pyrimidin-7(4H)-one] |
| 552 | Cc1ccc(-c2[nH]c3ncnn3c(=O)c2C(C)C)o1 [Example 11-117, 6-(1-methylethyl)-5-(5-methylfuran-2-yl)[1,2,4]triazolo[1,5-a]pyrimidin-7(4H)-one] |
| 9.79 | CC(C)c1c(-c2ccc(N3CCNCC3)cc2)[nH]c2ncnn2c1=O [Example 11-118, 6-(1-methylethyl)-5-(4-piperazin-1-ylphenyl)[1,2,4]triazolo[1,5-a]pyrimidin-7(4H)-one] |
| 27.5 | CC(C)c1c(-c2ccc(N)c(F)c2)[nH]c2ncnn2c1=O [Example 11-119, 5-(4-amino-3-fluorophenyl)-6-(1-methylethyl)[1,2,4]triazolo[1,5-a]pyrimidin-7(4H)-one] |
| 17 | CC(C)c1c(-c2ccnc(C(F)(F)F)c2)[nH]c2ncnn2c1=O [Example 11-120, 6-(1-methylethyl)-5-[2-(trifluoromethyl)pyridin-4-yl][1,2,4]triazolo[1,5-a]pyrimidin-7(4H)-one] |
| 43.5 | CC(C)c1c(-c2cncc(C(C)(C)O)c2)[nH]c2ncnn2c1=O [Example 11-121, 5-[5-(1-hydroxy-1-methylethyl)pyridin-3-yl]-6-(1-methylethyl)[1,2,4]triazolo[1,5-a]pyrimidin-7(4H)-one] |
| 13.3 | CC(C)c1c(-c2cn[nH]c2)[nH]c2ncnn2c1=O [Example 11-122, 6-(1-methylethyl)-5-(1H-pyrazol-4-yl)[1,2,4]triazolo[1,5-a]pyrimidin-7(4H)-one] |
| 6.93 | CC(C)c1c(-c2ccc3c(c2)CC(=O)N3)[nH]c2ncnn2c1=O [Example 11-123, 6-(1-methylethyl)-5-(2-oxo-2,3-dihydro-1H-indol-5-yl)[1,2,4]triazolo[1,5-a]pyrimidin-7(4H)-one] |
| 8.76 | CC(C)c1c(-c2ccc(NS(=O)(=O)C3CC3)cc2)[nH]c2ncnn2c1=O [Example 11-124, N-{4-[6-(1-methylethyl)-7-oxo-4,7-dihydro[1,2,4]triazolo[1,5-a]pyrimidin-5-yl]phenyl}cyclopropanesulfonamide] |
| 7.36 | CC(C)c1c(-c2cnn(C3CCCCO3)c2)[nH]c2ncnn2c1=O (centres unmarked) [Example 11-125, 6-(1-methylethyl)-5-[1-(tetrahydro-2H-pyran-2-yl)-1H-pyrazol-4-yl][1,2,4]triazolo[1,5-a]pyrimidin-7(4H)-one] |
| 10.4 | CC(C)c1c(-c2ccc(N3CCCCC3)nc2)[nH]c2ncnn2c1=O [Example 11-126, 6-(1-methylethyl)-5-(6-piperidin-1-ylpyridin-3-yl)[1,2,4]triazolo[1,5-a]pyrimidin-7(4H)-one] |
| 11.6 | CC(C)c1c(-c2ccc(N3CCOCC3)nc2)[nH]c2ncnn2c1=O [Example 11-127, 6-(1-methylethyl)-5-(6-morpholin-4-ylpyridin-3-yl)[1,2,4]triazolo[1,5-a]pyrimidin-7(4H)-one] |
| 12.3 | CC(C)c1c(-c2ccc(-n3cccn3)nc2)[nH]c2ncnn2c1=O [Example 11-128, 6-(1-methylethyl)-5-[6-(1H-pyrazol-1-yl)pyridin-3-yl][1,2,4]triazolo[1,5-a]pyrimidin-7(4H)-one] |
| 66.8 | CC(C)c1c(-c2ccc(F)nc2)[nH]c2ncnn2c1=O [Example 11-129, 5-(6-fluoropyridin-3-yl)-6-(1-methylethyl)[1,2,4]triazolo[1,5-a]pyrimidin-7(4H)-one] |
| 54.5 | CC(C)c1c(-c2ccc(CO)nc2)[nH]c2ncnn2c1=O [Example 11-130, 5-[6-(hydroxymethyl)pyridin-3-yl]-6-(1-methylethyl)[1,2,4]triazolo[1,5-a]pyrimidin-7(4H)-one] |
| 48.7 | CC(C)c1c(-c2ccc(C#N)nc2)[nH]c2ncnn2c1=O [Example 11-131, 5-[6-(1-methylethyl)-7-oxo-4,7-dihydro[1,2,4]triazolo[1,5-a]pyrimidin-5-yl]pyridine-2-carbonitrile] |
| 41.7 | CC(C)c1c(-c2ccc(C(F)(F)F)nc2)[nH]c2ncnn2c1=O [Example 11-132, 6-(1-methylethyl)-5-[6-(trifluoromethyl)pyridin-3-yl][1,2,4]triazolo[1,5-a]pyrimidin-7(4H)-one] |
| 44.4 | CC(C)c1c(-c2ccc(C3CC3)nc2)[nH]c2ncnn2c1=O [Example 11-133, 5-(6-cyclopropylpyridin-3-yl)-6-(1-methylethyl)[1,2,4]triazolo[1,5-a]pyrimidin-7(4H)-one] |
| 5.08 | CC(C)c1c(-c2ccn(C(C)(C)C)c2)[nH]c2ncnn2c1=O [Example 11-134, 5-(1-tert-butyl-1H-pyrrol-3-yl)-6-(1-methylethyl)[1,2,4]triazolo[1,5-a]pyrimidin-7(4H)-one] |
| 61 | CC(C)c1c(-c2cc(C(C)(C)C)n[nH]2)[nH]c2ncnn2c1=O [Example 11-135, 5-(3-tert-butyl-1H-pyrazol-5-yl)-6-(1-methylethyl)[1,2,4]triazolo[1,5-a]pyrimidin-7(4H)-one] |
| 469 | CC(C)c1c(-c2csc(-c3ccccc3)n2)[nH]c2ncnn2c1=O [Example 11-136, 6-(1-methylethyl)-5-(2-phenyl-1,3-thiazol-4-yl)[1,2,4]triazolo[1,5-a]pyrimidin-7(4H)-one] |
| 41.9 | CC(C)c1c(-c2csc(-n3cccn3)n2)[nH]c2ncnn2c1=O [Example 11-137, 6-(1-methylethyl)-5-[2-(1H-pyrazol-1-yl)-1,3-thiazol-4-yl][1,2,4]triazolo[1,5-a]pyrimidin-7(4H)-one] |
| 657 | CC(C)c1c(-c2ccsc2)[nH]c2ncnn2c1=O [Example 11-138, 6-(1-methylethyl)-5-thiophen-3-yl[1,2,4]triazolo[1,5-a]pyrimidin-7(4H)-one] |
| 193 | CC(C)c1c(-c2cnco2)[nH]c2ncnn2c1=O [Example 11-139, 6-(1-methylethyl)-5-(1,3-oxazol-5-yl)[1,2,4]triazolo[1,5-a]pyrimidin-7(4H)-one] |
